For orientation: pIC50 means −log10 of the IC50, conventionally taken in molar units.

pIC50: −log10 of the molar value. Like-named read-outs stand apart in the source and are kept apart here.

Our source for the IC50 values is patent US9549921B2, “Heterocyclic compounds and methods of use thereof for the treatment of hepatitis C” (priority 2014, dated 2017).

One assay relates to HCV replicon genotype 1a. Description: HCV replicon assay, genotype 1a (cell ELISA for NS3/4A). The assay is classed as cell-based, hepatitis C virus. Particulars: for pIC50: read-out: 1a IC50, HCV genotype 1a replicon cells, 96 hours incubation, NS3/4A ELISA readout, % of DMSO control; for IC50: Hepatitis C virus, 96 h, read-out: 1a IC50 (nM), HCV genotype 1a replicon cells, 96 hours incubation, NS3/4A ELISA readout, % of DMSO control. The method, boiled down: (§1)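 Stable neomycin-resistant replicon cell lines (genotype 1a or 1b) incubated 96 h with compound dilution series without G418. After washing and lysis, replication measured by cell ELISA for replicon-encoded NS3/4A protein; IC50 as % of DMSO control via four-parameter fit.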

The subject of a further assay is HCV replicon genotype 1b. The assay is described as follows: HCV replicon assay, genotype 1b (cell ELISA for NS3/4A). The assay is classed as cell-based, hepatitis C virus. Particulars: for pIC50: read-out: 1b IC50, HCV genotype 1b replicon cells, 96 hours incubation, NS3/4A ELISA readout, % of DMSO control; for IC50: Hepatitis C virus, 96 h, read-out: 1b IC50 (nM), HCV genotype 1b replicon cells, 96 hours incubation, NS3/4A ELISA readout, % of DMSO control. The method, boiled down:
as §1

Regarding `CNC(=O)c1c(-c2ccc(F)cc2)oc2cc(N(C)S(C)(=O)=O)c([C@@H]3CCCN(c4nc5ccccc5[nH]4)C3)cc12` (single isomer, unassigned) [Example 45, 5-(1-(1H-benzo[d]imidazol-2-yl)piperidin-3-yl)-2-(4-fluorophenyl)-N-methyl-6-(N-methylmethylsulfonamido)benzofuran-3-carboxamide], the results for the negative-log IC50 (pIC50) in the assay with HCV replicon genotype 1a and in the assay with HCV replicon genotype 1b were 6.65 and 7.15, respectively.

For `CNC(=O)c1c(-c2ccc(F)cc2)oc2cc(N(C)S(C)(=O)=O)c([C@@H]3CCCN(c4nc5c(F)cccc5[nH]4)C3)cc12` (single isomer, unassigned) [Example 56, 5-(1-(4-fluoro-1H-benzo[d]imidazol-2-yl)piperidin-3-yl)-2-(4-fluorophenyl)-N-methyl-6-(N-methylmethylsulfonamido)benzofuran-3-carboxamide], the pIC50 with HCV replicon genotype 1a is 7.27; in the assay with HCV replicon genotype 1b it was 7.62.

For the molecule `CNC(=O)c1c(-c2ccc(F)cc2)oc2cc(N(C)S(C)(=O)=O)c([C@@H]3CCCN(S(=O)(=O)Cc4ccccn4)C3)cc12` [Example 123, 2-(4-fluorophenyl)-N-methyl-6-[methyl(methylsulfonyl)amino]-5-{(3S)-1-[(pyridin-2-ylmethyl)sulfonyl]piperidin-3-yl}-1-benzofuran-3-carboxamide], the IC50 in the assay with HCV replicon genotype 1a worked out at 106 nM; in the assay on HCV replicon genotype 1b, 29.8 nM.

For `CNC(=O)c1c(-c2ccc(F)cc2)oc2cc(N(C)S(C)(=O)=O)c([C@H]3CCCN(S(=O)(=O)Cc4cccnc4)C3)cc12` [Example 140, 2-(4-fluorophenyl)-N-methyl-6-[methyl(methylsulfonyl)amino]-5-{(3R)-1-[(pyridin-3-ylmethyl)sulfonyl]piperidin-3-yl}-1-benzofuran-3-carboxamide], the IC50 came out at 20.5 nM in the assay on HCV replicon genotype 1a and 16.5 nM in the assay on HCV replicon genotype 1b.

`CNC(=O)c1c(-c2ccc(F)cc2)oc2cc(N(C)S(C)(=O)=O)c([C@@H]3CCCN(C(=O)CC4CCCCC4)C3)cc12` [Example 68, 5-[1-(cyclohexylacetyl)piperidin-3-yl]-2-(4-fluorophenyl)-N-methyl-6-[methyl(methylsulfonyl)amino]-1-benzofuran-3-carboxamide]: the figures for the IC50 with HCV replicon genotype 1a and with HCV replicon genotype 1b were 98 nM and 89 nM, respectively.

`CNC(=O)c1c(-c2ccc(F)cc2)oc2cc(N(C)S(C)(=O)=O)c([C@H]3CCCN(S(=O)(=O)c4cn(CC(C)C)nc4C)C3)cc12` [Example 143, 2-(4-fluorophenyl)-N-methyl-5-[(3R)-1-{[3-methyl-1-(2-methylpropyl)-1H-pyrazol-4-yl]sulfonyl}piperidin-3-yl]-6-[methyl(methylsulfonyl)amino]-1-benzofuran-3-carboxamide]: the IC50 with HCV replicon genotype 1a worked out at 315 nM; in the assay with HCV replicon genotype 1b it was 214 nM.

On to `CNC(=O)c1c(-c2ccc(F)cc2)oc2cc(N(C)S(C)(=O)=O)c([C@@H]3CCCN(S(=O)(=O)c4ccc(C)cc4)C3)cc12` [Example 113, 2-(4-fluorophenyl)-N-methyl-6-[methyl(methylsulfonyl)amino]-5-{(3S)-1-[(4-methylphenyl)sulfonyl]piperidin-3-yl}-1-benzofuran-3-carboxamide], for which the IC50 in the assay with HCV replicon genotype 1a is 64.6 nM; with HCV replicon genotype 1b, 21.9 nM.

For the molecule `CNC(=O)c1c(-c2ccc(F)cc2)oc2cc(N(C)S(C)(=O)=O)c(C3C[C@@H](c4nc5c(F)cccc5o4)N(C)C3)cc12` (stereo partly drawn) [Example 12, 5-((5S)-5-(4-fluorobenzo[d]oxazol-2-yl)-1-methylpyrrolidin-3-yl)-2-(4-fluorophenyl)-N-methyl-6-(N-methylmethylsulfonamido)benzofuran-3-carboxamide], the IC50 with HCV replicon genotype 1a worked out at 92.8 nM; in the assay on HCV replicon genotype 1b, 37.8 nM.

With `CNC(=O)c1c(-c2ccc(F)cc2)oc2cc(N(C)S(C)(=O)=O)c([C@H]3CCCN(C(=O)c4cc5cc(C(F)(F)F)ccc5n4C)C3)cc12` [Example 89, 2-(4-fluorophenyl)-N-methyl-6-[methyl(methylsulfonyl)amino]-5-[(3R)-1-{[1-methyl-5-(trifluoromethyl)-1H-indol-2-yl]carbonyl}piperidin-3-yl]-1-benzofuran-3-carboxamide], the IC50 with HCV replicon genotype 1a came to 84.4 nM; in the assay with HCV replicon genotype 1b it was 45.2 nM.

For the molecule `CNC(=O)c1c(-c2ccc(F)cc2)oc2cc(N(C)S(C)(=O)=O)c([C@H]3CCCN(C(=O)c4nc5ccc(F)cc5[nH]4)C3)cc12` [Example 92, 5-{(3R)-1-[(6-fluoro-1H-benzimidazol-2-yl)carbonyl]piperidin-3-yl}-2-(4-fluorophenyl)-N-methyl-6-[methyl(methylsulfonyl)amino]-1-benzofuran-3-carboxamide], the IC50 with HCV replicon genotype 1a was 274 nM; in the assay with HCV replicon genotype 1b it was 97 nM.

With `CNC(=O)c1c(-c2ccc(F)cc2)oc2cc(N(C)S(C)(=O)=O)c([C@@H]3CCCN(C(=O)c4cc5cccnc5[nH]4)C3)cc12` (stereo in doubt) [Example 66, 2-(4-fluorophenyl)-N-methyl-6-[methyl(methylsulfonyl)amino]-5-[1-(1H-pyrrolo[2,3-b]pyridin-2-ylcarbonyl)piperidin-3-yl]-1-benzofuran-3-carboxamide], the IC50 stood at 92.6 nM in the assay on HCV replicon genotype 1a and 21.2 nM with HCV replicon genotype 1b.

Turning to `CNC(=O)c1c(-c2ccc(F)cc2)oc2cc(N(C)S(C)(=O)=O)c([C@@H]3CCCN(C(=O)C4CC4c4ccccn4)C3)cc12` (some centres unmarked) [Example 60, 2-(4-fluorophenyl)-N-methyl-6-[methyl(methylsulfonyl)amino]-5-{1-[(2-pyridin-2-ylcyclopropyl)carbonyl]piperidin-3-yl}-1-benzofuran-3-carboxamide], the negative-log IC50 (pIC50) in the assay on HCV replicon genotype 1a was 6.94; in the assay with HCV replicon genotype 1b, 7.39.

On to `CNC(=O)c1c(-c2ccc(F)cc2)oc2cc(N(C)S(C)(=O)=O)c([C@@H]3CCCN(c4nc5cc(F)ccc5o4)C3)cc12` (single isomer, unassigned) [Example 52], for which the IC50 in the assay on HCV replicon genotype 1a was 32.6 nM; in the assay on HCV replicon genotype 1b, 42.6 nM.

With `CNC(=O)c1c(-c2ccc(F)cc2)oc2cc(N(C)S(C)(=O)=O)c([C@@H]3CCCN(S(=O)(=O)c4ccc(F)cc4)C3)cc12` [Example 115], the figures for the IC50 in the assay with HCV replicon genotype 1a and with HCV replicon genotype 1b were 36.6 nM and 8 nM, respectively.

As to `CNC(=O)c1c(-c2ccc(F)cc2)oc2cc(N(C)S(C)(=O)=O)c([C@@H]3CCCN(C(=O)C4CC4c4ccc(F)cc4)C3)cc12` (stereo in doubt) [Example 61, 2-(4-fluorophenyl)-5-(1-{[2-(4-fluorophenyl)cyclopropyl]carbonyl}piperidin-3-yl)-N-methyl-6-[methyl(methylsulfonyl)amino]-1-benzofuran-3-carboxamide], the IC50 with HCV replicon genotype 1a turned out to be 251 nM; in the assay on HCV replicon genotype 1b, 99.5 nM.

As to `CNC(=O)c1c(-c2ccc(F)cc2)oc2cc(N(C)S(C)(=O)=O)c([C@H]3CCCN(C(=O)c4cc5cc(F)ccc5[nH]4)C3)cc12` [Example 90, (R)-5-(1-(5-fluoro-1H-indole-2-carbonyl)piperidin-3-yl)-2-(4-fluorophenyl)-N-methyl-6-(N-methylmethylsulfonamido)benzofuran-3-carboxamide], the IC50 with HCV replicon genotype 1a came out at 41.6 nM; in the assay with HCV replicon genotype 1b, 20.7 nM.

As to `CNC(=O)c1c(-c2ccc(F)cc2)oc2cc(N(C)S(C)(=O)=O)c([C@H]3CCCN(S(=O)(=O)C4CCCCC4)C3)cc12` [Example 132, 5-[(3R)-1-(cyclohexylsulfonyl)piperidin-3-yl]-2-(4-fluorophenyl)-N-methyl-6-[methyl(methylsulfonyl)amino]-1-benzofuran-3-carboxamide], the IC50 was 93.3 nM in the assay with HCV replicon genotype 1a and 56.1 nM with HCV replicon genotype 1b.

In the case of `CNC(=O)c1c(-c2ccc(F)cc2)oc2cc(N(C)S(C)(=O)=O)c([C@H]3CCCN(C(=O)c4ccn5nncc5c4)C3)cc12` [Example 105, 2-(4-fluorophenyl)-N-methyl-6-[methyl(methylsulfonyl)amino]-5-[(3R)-1-([1,2,3]triazolo[1,5-a]pyridin-5-ylcarbonyl)piperidin-3-yl]-1-benzofuran-3-carboxamide], the IC50 came to 347 nM in the assay with HCV replicon genotype 1a and 219 nM in the assay on HCV replicon genotype 1b.

For `CNC(=O)c1c(-c2ccc(F)cc2)oc2cc(N(C)S(C)(=O)=O)c([C@@H]3CCCN(C(=O)c4cc5cccc(OC)c5[nH]4)C3)cc12` (single isomer, unassigned) [Example 41, 2-(4-fluorophenyl)-5-(1-(7-methoxy-1H-indole-2-carbonyl)piperidin-3-yl)-N-methyl-6-(N-methylmethylsulfonamido)benzofuran-3-carboxamide], the negative-log IC50 (pIC50) with HCV replicon genotype 1a was 7.51. Also, the IC50 in the assay with HCV replicon genotype 1b came out at 13.5 nM.

Consider `CCn1c(C(=O)N2CCC[C@@H](c3cc4c(C(=O)NC)c(-c5ccc(F)cc5)oc4cc3N(C)S(C)(=O)=O)C2)cc2c(F)cccc21` [Example 33, (S)-5-(1-(1-ethyl-4-fluoro-1H-indole-2-carbonyl)piperidin-3-yl)-2-(4-fluorophenyl)-N-methyl-6-(N-methylmethylsulfonamido)benzofuran-3-carboxamide], for which the figures for the IC50 in the assay on HCV replicon genotype 1a and in the assay on HCV replicon genotype 1b were 130 nM and 196 nM, respectively.

For `CNC(=O)c1c(-c2ccc(F)cc2)oc2cc(N(C)S(C)(=O)=O)c([C@H]3CCCN(S(=O)(=O)Cc4cccc(F)c4)C3)cc12` [Example 82, 5-{(3R)-1-[(3-fluorobenzyl)sulfonyl]piperidin-3-yl}-2-(4-fluorophenyl)-N-methyl-6-[methyl(methylsulfonyl)amino]-1-benzofuran-3-carboxamide], the IC50 in the assay on HCV replicon genotype 1a was 2.2 nM; in the assay on HCV replicon genotype 1b, 3.26 nM.

Turning to `CNC(=O)c1c(-c2ccc(F)cc2)oc2cc(N(C)S(C)(=O)=O)c([C@H]3CN(c4nc5ccccc5o4)CCO3)cc12` (single isomer, unassigned) [Example 10, 5-(4-(benzo[d]oxazol-2-yl)morpholin-2-yl)-2-(4-fluorophenyl)-N-methyl-6-(N-methylmethylsulfonamido)benzofuran-3-carboxamide], the IC50 stood at 16 nM in the assay with HCV replicon genotype 1a and 26.6 nM in the assay with HCV replicon genotype 1b.
